Results on ten compounds are retold here after patent publication US7541375B2, “Azole derivatives and pharmaceutical compositions containing them” (Laboratoires Serono SA, priority 2001, dated 2009).

“And” between values parts separate entries of the source, which are not always exact repeats. Identical values can stand only once.

One assay relates to Colon C26 cell. Description: Colon C26 cell anti-proliferation assay. Type of assay: cell-based, murine. The settings on record: Mus musculus; Colon C26 cells, 2×10^3 cells/well. As to the method:
(§1) Compounds of the invention were tested for anti-proliferation activity against colon tumors (Colo205, HT-29, C26 and SW660 cell lines) by procedures described in Example 40 above. 2×10^3 cells/well used.

Assay [1] concerns the target MEK-1 (constitutively active MEK1EE) (Homo sapiens, UniProt Q02750, S218E/S222E). Nature of the assay: MEK-1 enzyme assay (HTRF, phosphorylation of ERK2K52A). Type of assay: biochemical. The following applies: 3 μM ATP, 2 hours room temperature. As to the method: A 50 μl mixture containing 15 nM constitutively active MEK1EE and 300 nM of ERK2K52A were incubated either in the presence or absence of the compounds of the invention in 1% DMSO and 1× kinase buffer containing 3 μM ATP, […], […], 1 mM DTT and 100 μM Na3VO4 in Wallac 96 well black plates for 2 hours at room temperature. At the end of the incubation the enzyme reaction was quenched by adding 50 μl of assay buffer containing […] Tris-HCl, 50 mM EDTA, 0.1% BSA and a mixture of 1.25 μg/ml europium labeled anti-phosphotyrosine mAb and 5 μg/ml allophycocyanin labeled (APC) anti-GST antibody. Plates were agitated on a plate shaker for 30 minutes and phosphorylation of the ERK2K52A substrate was measured by homogenous time resolved fluorescence (HTRF) at 340 nm excitation and […] emission filters on the VICTOR V fluorescence plate reader. The results are of phosphorylation of ERK-2, with inhibition occurring at the MEK-1 level. Results were as follows for the specified compounds: […]

For another assay, the system named is TNF release (TNF-α). Nature of the assay: Inhibition of TNF-alpha production in LPS-stimulated mice. Type of assay: in vivo. The settings on record: −15 mn before LPS. The procedure: Injection of lipopolysaccharide (LPS) induces a rapid release of soluble tumor necrosis factor (TNF-α) into the periphery. This model is used to identify potential blockers of TNF release in vivo
The potency of compounds of the invention as inhibitors of serum TNFα elevation in mice treated with LPS is determined as follows:
• For per oral (p.o.) administration, compounds of the invention are formulated in 0.5% carboxymethyl cellulose/0.25% Tween 80 in saline and given orally via gavage […] to LPS administration. Dexamethasone is used as the reference compound and given at 0.1 mg/kg per orally. • C3/hen female mice (Iffa-Credo, France) are injected intraperitoneally with 0.3 mg/kg LPS (Escherichia coli, Serotype 0111:B4, Sigma Chemical Co., St. Louis, Mo.) and sacrificed 90 min later by CO2 asphyxiation. Blood is immediately taken from caudal vena cava and plasma prepared and frozen at −80° C. Each group of treatment contained 6 animals.

For assay [2], the system named is SW 660 cell (ATCC CCL-227). Nature of the assay: SW 660 cell anti-proliferation assay. The following applies: SW 660 cells, 2×10^3 cells/well. Type of assay: cell-based. The procedure: as §1
Assay [3] concerns ovarian cancer OVCAR-3 cells. Nature of the assay: OVCAR-3 tumor cell proliferation assay. Type of assay: cell-based. The settings on record: Homo sapiens; OVCAR-3, ATP lite cell proliferation kit.
Experimental: (§2) Breast cancer MCF-7 cells or ovarian cancer OVCAR-3 cells were plated in 96 well Packard white plates at 4×10^3 cells/well and cultured overnight at 37° C. in 5% CO2. The below specified test compounds were serially diluted in 100% DMSO and subsequently added to cells to reach a final concentration of 0.5% DMSO. MCF-7 and OVCAR-3 (ATCC HTB-161) plates were incubated for an additional 4 to 5 days respectively at 37° C. and 5% CO2 and cell proliferation was quantitated using the ATP lite cell proliferation kit (Packard).
Assay [4] relates to Colon 205 cell (ATCC CCL-222). Nature of the assay: Colon 205 cell anti-proliferation assay. The following applies: Colon 205 cells, 2×10^3 cells/well. Type of assay: cell-based. As to the method: as §1
A further assay concerns HT-29 cell (ATCC HTB-38). Description: HT-29 cell anti-proliferation assay. Type of assay: cell-based. The settings on record: Homo sapiens; HT-29 cells, 2×10^3 cells/well. As to the method:
as §1

Another assay deals with MEK-1/ERK-2 (Homo sapiens, UniProt Q02750, S218E/S222E). Nature of the assay: MEK-1/ERK-2 enzyme cascade assay (33P incorporation into MBP biotin). Type of assay: biochemical. The following applies: 3 μM ATP, phosphorylation of myelin basic protein. As to the method: MEK-1/ERK-2 Enzyme Cascade Assay
Sequence of MEK-1/ERK-2 (Q02750 whole entry S218E/S222E): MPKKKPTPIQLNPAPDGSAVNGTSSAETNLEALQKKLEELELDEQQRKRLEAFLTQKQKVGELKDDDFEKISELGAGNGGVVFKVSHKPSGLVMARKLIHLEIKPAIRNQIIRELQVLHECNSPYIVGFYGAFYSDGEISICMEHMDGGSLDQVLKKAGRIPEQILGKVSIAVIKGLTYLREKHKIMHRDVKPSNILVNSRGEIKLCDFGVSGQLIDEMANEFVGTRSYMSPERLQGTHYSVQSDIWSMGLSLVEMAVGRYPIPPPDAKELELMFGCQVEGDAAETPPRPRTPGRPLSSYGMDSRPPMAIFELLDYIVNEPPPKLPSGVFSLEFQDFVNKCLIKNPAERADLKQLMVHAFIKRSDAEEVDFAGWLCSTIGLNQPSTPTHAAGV
A 50 μl mixture containing 40 nM of constitutively active MEK1EE, 160 nM of ERK2 and 10 μM MBP biotin were incubated in the presence or absence of the below compound of the invention in 1% DMSO and 1× kinase buffer containing 3 μM ATP, 50 mM Tris-HCl pH 8.0, 10 mM MgCl2, 1 mM DTT, 100 μM Na3VO4 and […] ^33P-γATP in Wallac 96 well white plates for 2 hours at room temperature. At the end of the incubation the enzyme reaction was quenched by adding 200 μl Phosphate buffered saline (PBS) solution containing 1.25 mg/ml Streptavidin SPA beads, 50 mM EDTA and 0.1% Triton 100 and incubated further for 12-14 hours at room temperature. ^33P-γATP incorporation into MBP biotin was measured using the top counts. The assay read-out is phosphorylation of myelin basic protein, which is a representative substrate of ERK-2-phos. This assay is a further confirmatory screen of the assay of Example 38 above.

Assay [5] has as its system murine colon carcinoma C26 cells. Description: Growth of tumors induced in CDF1 mice with murine colon carcinoma C26 cells. Type of assay: in vivo. As to the method: The aim of this study was to evaluate the effects of Example No. 30 in FIG. 1: […] Control group (empty circles) was treated with NP3S (5% N-methylpyrrolidone/30% PEG400/25% PEG200/20% Propylene Glycol in Saline) per os bid. […] Drugs treatment started 8 days following C26 cell injection and then continued for 13 days. […] Tumor volume and body weight were monitored every three days from day 8 until day 20.

Assay [6] concerns Breast cancer MCF-7 cells. Description: MCF-7 tumor cell proliferation assay. Type of assay: cell-based. The following applies: Homo sapiens, MCF7; MCF-7, ATP lite cell proliferation kit.
Experimental: as §2

Sequence of MEK-1 (constitutively active MEK1EE) (Q02750 whole entry S218E/S222E, species assumed): as the sequence (Q02750 whole entry S218E/S222E) above

`O=C(NC(COc1ccc(F)cc1)Cn1ccnc1Cl)c1ccc(I)cc1` (stereo not shown) [Example 34, N-[1-(2-Chloro-imidazol-1-ylmethyl)-2-(4-fluoro-phenoxy)-ethyl]-4-iodo-benzamide] registered an IC50 in the assay on Colon C26 cell of 1250 nM.
For the compound `O=C(OC(COc1ccc([N+](=O)[O-])cc1)Cn1ccnc1)c1ccc(I)cc1` (stereo not shown) [Example 18, 4-Iodo-benzoic acid 2-imidazol-1-yl-1-(4-nitro-phenoxymethyl)-ethyl ester], the 50% inhibitory concentration (IC50) in [1] was 15 nM; in the assay with Colon C26 cell it was 570 nM.
Turning to `C[C@@H]1C[C@H]2[C@@H]3CCC4=CC(=O)C=C[C@]4(C)[C@@]3(F)[C@@H](O)C[C@]2(C)[C@@]1(O)C(=O)CO` [Dexamethasone, reference compound], in the assay with TNF release (TNF-α) (0.1 mg/kg p.o.), the “TNF Release vs LPS inj. % of inhibition Mean ± SEM” value was 86 ± 6% and 88 ± 1%.
For the compound `O=C(N[C@@H](COc1ccccc1)Cn1ccnc1)c1ccc(I)cc1` [Example 27, N-(1-imidazol-1-ylmethyl-2-phenoxy-ethyl)-4-iodo-benzamide], the half-inhibitory concentration (IC50) in [2] came to 2200 nM; in assay [1] it was 92 nM; in assay [3], 50000 nM; in [4], 2100 nM; in the assay with HT-29 cell (ATCC HTB-38), 2800 nM; at MEK-1/ERK-2, 85 nM. In addition, the “TNF Release vs LPS inj. % of inhibition Mean ± SEM” value in the assay on TNF release (TNF-α) (12.5 mg/kg p.o.) is reported as 32 ± 5%; in the assay with TNF release (TNF-α) (50 mg/kg p.o.), 39 ± 3%.
Take `O=P1(N(CCCl)CCCl)NCCCO1` (stereo not shown) [Cyclophosphamide, reference compound]: the “inhibition of tumor growth at day 20” value in assay [5] (50 mg/kg s.c. every third day, 5 treatments, day 20) stood at 73%. Also, the “tumor growth (tumor volume)” value in assay [5] (50 mg/kg s.c. every third day, day 11 until day 20 (p<0.001)) is given as “significantly slowed down tumor growth”. For the same compound, in assay [5] (50 mg/kg s.c. every third day, from day 11), the “tumor-associated loss in body weight” value was “markedly prevented”.
Take `O=C(NC(COc1ccc(F)cc1)Cn1ccnc1)c1ccc(I)cc1` (stereo not shown) [Example 30, N-[2-(4-Fluoro-phenoxy)-1-imidazol-1-ylmethyl-ethyl]-4-iodo-benzamide]: the IC50 in [1] was found to be 21 nM. The “TNF Release vs LPS inj. % of inhibition Mean ± SEM” value was found to be 77 ± 2% in the assay on TNF release (TNF-α) (12.5 mg/kg p.o.) and 85 ± 3% with TNF release (TNF-α) (50 mg/kg p.o.). Further, the “tumor-induced body weight loss” value in [5] (50 mg/kg p.o. bid) and in assay [5] (100 mg/kg p.o. bid) was “significant prevention of tumor-induced body weight loss” each time. The “inhibition of tumor growth rate evaluated at day 20” value in assay [5] (100 mg/kg p.o. bid, day 20, vs NP3S control) is recorded as 37%. The “tumor growth vs NP3S control group” value in [5] (100 mg/kg p.o. bid, significant from day 11 to day 20) is “reduced tumor growth”.
For `N#Cc1ccc(OCC(Cn2ccnc2Cl)NC(=O)c2ccc(I)cc2)cc1` (stereo not shown) [Example 35, N-[1-(2-Chloro-imidazol-1-ylmethyl)-2-(4-cyano-phenoxy)-ethyl]-4-iodo-benzamide], the concentration for half-maximal inhibition (IC50) in the assay on Colon C26 cell is 300 nM.
On to `COc1ccc(C(=O)OC(COc2ccccc2)Cn2ccnc2)cc1` (racemic) [4-methoxy-benzoic acid 1-imidazol-1-yl methyl-2-phenoxy-ethyl ester (racemic), 4-methoxy-benzoic acid 1-imidazol-1-yl methyl-2-phenoxy-ethyl ester], for which the IC50 was found to be 1630 ± 241 nM in assay [1] and 1780 ± 254 nM on MEK-1/ERK-2.
Turning to `COc1ccc(C(=O)O[C@@H](COc2ccccc2)Cn2ccnc2)cc1` [Example 6, (R)-4-Methoxy-benzoic acid 1-imidazol-1-yl methyl-2-phenoxy-ethyl ester], the IC50 in assay [2] turned out to be 20000 nM; in assay [6], 32500 ± 3500 nM; in assay [1], 860 ± 93 nM; in assay [3] it was 40000 nM; in [4] it was 22500 nM; with HT-29 cell (ATCC HTB-38), 27500 nM. The IC50 against MEK-1/ERK-2 was found to be 920 ± 174 nM.
As for `O=C(O[C@@H](COc1cccnc1)Cn1ccnc1)c1ccc(I)cc1` [Example 22, 4-Iodo-benzoic acid 1-imidazol-3-yl methyl-2-(pyridin-3-yloxy)-ethyl ester], the IC50 in [1] is 11 nM; in the assay with Colon C26 cell it was 1080 nM.
